Reference: article PMC7529893, “Structural basis for substrate recognition and chemical inhibition of oncogenic MAGE ubiquitin ligases” (Nature Communications, 2020)
“Also recorded” adds a separate entry of the source.

Assays:
[1] = test system: PCF11 degradation by MAGE-A11 in HEK293FT cells; assay: PCF11 degradation by MAGE-A11, immunoblot in HEK293FT cells; format: cell-based
Protocol: HEK293FT, HeLa and DAOY cells were grown in DMEM (Gibco) supplemented with 10% (v/v) FBS (Hyclone), 2 mM L-glutamine, 100 units/ml penicillin, 100 units/ml streptomycin, and […] amphotericin B (Invitrogen). HEK293FT and DAOY cells were transfected with either HA-FLAG-vector, FLAG-MAGE-A11 wild-type or SBC mutants using Effectene (QIAGEN) according to the manufacturer’s protocol in 6 cm^2 plates. After 48 h, cells were selected with 1 µg/ml puromycin (Sigma) over 2 weeks.
For western blotting, samples in SDS sample buffer were resolved on SDS-PAGE gels and then transferred to nitrocellulose membranes prior to blocking in TBST with 5% (w/v) milk powder or 3% (w/v) bovine serum albumin and probing with primary and secondary antibodies (GE Healthcare). Primary antibodies were: anti-Myc (Sigma, #C3956), anti-FLAG (Sigma, #F3165), anti-HUWE1 (Novus Biologicals, #NB 100-652), anti-PCF11 (Bethyl Laboratories, #A303-706A), anti-GAPDH (Cell Signaling Technology, #2118), anti-TRIM28 (Abcam, #ab22553), anti-AMPKα1 (Cell Signaling Technology, #2795), and anti-MMS19 (Proteintech, #16015-1-AP) and Tb-anti-GST (Invitrogen, #PV3551). Secondary antibodies were: Donkey Anti-Rabbit IgG (GE Healthcare, NA934V) and Sheep Anti-Mouse IgG (GE Healthcare, NA931V). […]

[2] = test system: HEK293FT cells stably expressing FLAG-vector or FLAG-MAGE-A11; assay: Cell viability, alamarBlue, HEK293FT cells; format: cell-based; details: HEK293FT FLAG-MAGE-A11 against FLAG-vector, 24 h; listed as SJ521054
Protocol: To assess cell viability after SJ521054 treatment, 1 × 10^4 cells/ml were treated with SJ521054 (0–40 μM) and incubated for 24 h prior to changing the media and adding alamarBlue (Thermo Fisher Scientific) and incubating for 4 h at 37 °C. Plates were read by measuring the fluorescence with excitation wavelength at 540 nm and emission wavelength at 590 nm on an Enspire plate reader.

FC(F)(F)c1ccc2c(NCCCNCc3ccc4[nH]ccc4c3)ccnc2c1 [SJ000521054-02]
PCF11 protein levels / PCF11 degradation ([1]; HEK293FT cells stably expressing FLAG-MAGE-A11, 24 h, listed as SJ521054): blocks PCF11 degradation by MAGE-A11; also recorded: stabilized PCF11 protein levels
PCF11 protein levels ([1]; HEK293FT vector control cells, 24 h): had no effect
cell viability [2]: reduces viability of; also recorded: decreased the viability of MAGE-A11 expressing DAOY and HEK293FT cells to a much greater extent than vector control MAGE-A11-negative cells
